Results taken from patent publication US5556777A, “Immunosuppressive pharmaceutical compositions new biological activity from a marine agrobacterium sp” (PharmaMar, s.a., priority 1993, dated 1996).
≈ marks a conversion by molar mass, not a printed value.

How the values were obtained:
[1] = system: Agrobacterium sp. strain PH-103; assay: Antibiotic sensitivity of strain PH-103 (sensitivity discs); assay type: cell-based; conditions: 27° C.
Method: 18. Antibiotic sensitivity--ATCC number 231 basal medium. Difco sensitivity discs
The culture was incubated at 27° C. and records of the results were made after suitable incubation times. All media were prepared with 2.7% Instant Ocean Salts and pH was approximately neutral (7-7.4). The description of the culture and test results are as follows: […]

[2] = system: primary mixed lymphocyte cultures (MLRs) and alloreactive T cells; conditions: compared with cyclosporin A; cited from earlier work
Graft-v-Host Reaction = assay: In vivo Graft-v-Host reaction (GVHR), spleen index; set-up: species or system mouse
Method: Any sample that prevents splenomegaly (<graft index) is considered as an immunosuppressive active.
A standard of cyclophosphamide (200 mg/kg) is used. Experimental animals are sacrificed on D8 and spleens removed. […] Moribund animals are sacrificed immediately.

[3] = Lymphocyte viability / cytotoxicity assay (LcV), MTT; assay type: cell-based, murine; conditions: mouse, lymphocytes; LcV; read-out: cytotoxicity IC50
Method: (§1) The LCV is a in vitro cytotoxicity assay for murine lymphocytes designed by the investigator. The LCV is similar to the MLR with the exception that only one cell population (Balb/c) is incubated with the test compound to assess cytotoxicity as distinct from the antiproliferative effects of a test compound. That is, unlike the unambiguous determination of immunostimulation from MLR data, a judgement of immunosuppression can not be immediately interpreted. Cytotoxicity (e.g., due to direct cell lysis) from a compound can occur which would alter viability determinations inherent in the generation of MLR data. […] The percent viable cells is determined by the MTT-thiazolyl blue method after a similar incubation to the MLR of lymphocytes with the test sample. MTT is a substrate converted by mitochondrial enzymes in living cells to a purple, water-insoluble, formazan crystal. If there is no significant reduction in cell viability, as determined by this detection method, then damaged cells are probably not present for low data values generated in the MLR. Colorimetric data from the LCV is calculated as a percentage of viability, relative to control, using the following formula: [formula]
(§2) A 50% viability, or 50% cytotoxicity, (IC50) value was interpolated for sesbanimide containing fractions tested.
(§3) Lymphocytes are prepared as described above for the MLR with the exception that cells from only one murine strain are prepared (BLAB/c). Reconstituted extract (10 μl) is added in two sets of duplicates into wells of a 96-well microtiter plate and evaporated to dryness at room temperature. Lymphocytes (2.5×10^6 cells/ml) are added to one set of duplicates and to wells containing no sample. Media containing no cells are added to the other set of duplicates to provide background color control data. Plated are incubated in a 5% CO2 incubator for 4 hours and pulsed with MTT-thiazolyl blue for 6-8 hours.

[4] = system: murine lymphocytes (Balb/c); assay: as above; assay type: cell-based; conditions: murine lymphocytes, MTT viability (50% cytotoxicity)
Method: as §1, §2, §3

leukemia = conditions: isolated from Sesbania drummondi; cited from earlier work
CD-1 or CB6F1 mice = assay: Toxicology (MTD, LD50) in CD-1 or CB6F1 mice; assay type: in vivo, mouse
Method: (§4) The MTD establishes the parameters to establish in vivo dosages initiated for studying the Graft-v-Host reaction and skin grafting. The Swiss conventional mouse (Charles River CD-1) is used in a weight range from 18-30 g.
(§5) Animals are injected with a single dose at four dose levels: e.g., 400 mg/kg, 100 mg/kg, 40 mg/kg, and 10 mg/kg in 0.5 ml of sterile vehicle (2 animals per dose, MTD). A saline solution containing 5% non-denatured EtOH and a drop of Tween-80 detergent is used a vehicle for dilution. Stirring and sonication are utilized to effect solution or suspension of the composition. The composition is injected within one hour of preparation. Animals are observed for five days (MTD) after injection for toxic symptoms and/or death. Group weights are taken D0 and D5. Surviving animals are sacrificed on D5 (MTD). A `Daily Logsheet` used in the toxicity studies is appended.

[5] = Toxicology (MTD, LD50) in CD-1 or CB6F1 mice; assay type: in vivo, mouse; conditions: mouse, in vivo, CD-1 or CB6F1 mice
Method: as §4, §5

[6] = system: murine lymphocytes (Balb/c and C57BI/6, cocultured); assay: In vitro murine mixed lymphocyte reaction (MLR); assay type: cell-based; conditions: for MLR IC50: murine MLR, 96 h incubation, 15 h 3H-Thy pulse; for Index Cytotox./Activity: ratio LcV IC50 / MLR IC50
Method: The MLR is an in vitro test of cellular immunity in which murine lymphocytes from genetically dissimilar animals are cocultured to mutually induce cell proliferation (i.e., two-way MLR method). Mixed cell suspensions, together with the test compound, are incubated for 96 hours and subsequently pulsed for 15 hours with tritiated-thymidine (3H-Thy), a radioisotopically labelled nucleic acid. Tritiated-thymidine is incorporated into the DNA of proliferating cells. Data from the MLR is generated as dpm of radioactivity which is then expressed as a percentage of cellular activity, relative to control, using the following reduced formula: [formula]
A 50% inhibitory concentration (IC50) value was interpolated for sesbanimide containing fractions tested. A ratio between cytotoxicity, as determined from the LcV described below, and activity in the MLR is also presented. A high ratio distinguishes noncytotoxic immunosuppression from general cytotoxicity.
Reconstituted extract (10 μl) is added in two sets of duplicates into wells of a 96-well microtiter plate and evaporated to dryness at room temperature. […] To the other set of sample duplicates is added complete media without cells so as to provide for background color control data. All plated are incubated in a 5% CO2 incubator for 96 hours and pulsed for 15 hours with 100 μl containing 1 μCi/well tritiated-thymidine (^3 H-Thy). The plates are harvested onto glass fiber filter discs using an INOTECH harvester. The filter discs are counted directly using an INOTECH dry scintillation counter. The activity of the discs are calculated as a relative proliferative percent of a mean control value as described above.

polymyxin
Antibiotic sensitivity of strain PH-103 [1]: resistant

C=CC[C@@H]1/C=C(\C)C[C@H](C)C[C@H](OC)[C@H]2O[C@@](O)(C(=O)C(=O)N3CCCC[C@H]3C(=O)O[C@H](/C(C)=C/[C@@H]3CC[C@@H](O)[C@H](OC)C3)[C@H](C)[C@@H](O)CC1=O)[C@H](C)C[C@@H]2OC [FK 506]
potency relative to cyclosporin A (in words) [2]: more potent than cyclosporin A

CN[C@H](CC(C)C)C(=O)N[C@H]1C(=O)N[C@@H](CC(N)=O)C(=O)N[C@H]2C(=O)N[C@H]3C(=O)N[C@H](C(=O)N[C@H](C(=O)O)c4cc(O)cc(O)c4-c4cc3ccc4O)[C@H](O)c3ccc(c(Cl)c3)Oc3cc2cc(c3O[C@@H]2O[C@H](CO)[C@@H](O)[C@H](O)[C@H]2O[C@H]2C[C@](C)(N)[C@H](O)[C@H](C)O2)Oc2ccc(cc2Cl)[C@H]1O [vancomycin]
Antibiotic sensitivity of strain PH-103 [1]: resistant

O=P1(N(CCCl)CCCl)NCCCO1 (stereo not shown) [Cyclophosphamide, cyclophosphamide]
Alive Day 8 (Graft-v-Host Reaction; 200.0 mg/kg, test 124-93): 100% | GVHR Index (Graft-v-Host Reaction; 200.0 mg/kg, test 124-93, positive 1.32): 0.23 | Alive Day 8 (Graft-v-Host Reaction; 200.0 mg/kg, test 811-93): 60% | GVHR Index (Graft-v-Host Reaction; 200.0 mg/kg, test 811-93, positive 1.34): 0.28

C=C1COC(O)(C2OCOC(C3CC(=O)NC(=O)C3)C2O)C1C (single isomer, unassigned) [Sesbanimide]
CC50 at 4 h [3]: 0.417 to 3.6 µg/mL (≈ 1.27 to 11 µM) | LcV IC50 ([4]; listed as ET 103/64-6:8): 13.100 µg/mL | LcV IC50 ([4]; listed as ET 103/89-4): 0.417 µg/mL | antineoplastic activity (in words) (leukemia): antineoplastic activity, particularly against leukemia | LD50 (CD-1 or CB6F1 mice; CD-1 or CB6F1 mice): 0.805 mg/kg | toxicity at 56, 10.5 and 5.6 mg/kg (CD-1 or CB6F1 mice; pure compound, in vivo, 56, 10.5 and 5.6 mg/kg): toxic | toxicity at total doses equal to or lower than 0.56 mg/kg (CD-1 or CB6F1 mice; pure compound, in vivo, total dose ≤0.56 mg/kg): no toxicity | survival at 120 h ([5]; at maximum tolerated dose, read-out: Alive Day 5): 100% | MTD at 120 h ([5]; read-out: Maximum Tolerated): 0.56 mg/kg | immunosuppressive activity (in words) ([6]; Table 4 data: trace amounts of an extract, major constituent, or pure compound): potent immunosuppressive activity | MLR IC50 ([6]; listed as ET 103/64-6:8): < 0.0075 µg/mL | MLR IC50 ([6]; listed as ET 103/89-4): 0.00015 µg/mL | Index Cytotox./Activity ([6]; listed as ET 103/64-6:8): > 1,746 | Index Cytotox./Activity ([6]; listed as ET 103/89-4): 2,777 | immunosuppressive activity in GVHR (in words) (Graft-v-Host Reaction; Table 6 data): potent immunosuppressive activity | Alive Day 8 (Graft-v-Host Reaction; optimal dose 0.2 mg/kg, i.p. per diem 7 days): 40% | GVHR Index (Graft-v-Host Reaction; optimal dose 0.2 mg/kg, i.p. per diem 7 days, positive 1.34): 0.92

CCn1cc(C(=O)O)c(=O)c2ccc(C)nc21 [nalidixic acid]
Antibiotic sensitivity of strain PH-103 [1]: Sensitive
